{
  "source": "patent US5563037A",
  "about": "“Homogeneous method for assay of double-stranded nucleic acids using fluorescent dyes and kit useful therein” (Johnson & Johnson Clinical Diagnostics, Inc., priority 1995, dated 1996)",
  "key": {"[1]": {"system": "HIV-I DNA", "test": "Example 1: PCR amplification of HIV-I DNA with YO-PRO-1 dye, fluorescence vs. PCR cycles", "assay_type": "biochemical", "text": "The primers used in Examples 1 and 2 had the following sequences which are complementary to the gag region of HIV-I DNA:\nHIV-I target DNA was obtained from HUT78/HIV AAV cells obtained from Bernie Poiesz of Syracuse University. Each cell contained about 1 HIV-I copy.\nThe final PCR reaction mixture contained the primers SEQ ID NO:1 and SEQ ID NO:2 (0.4 μmolar of each), magnesium chloride (10 mmolar), each of dATP, dCTP, dGTP and dTTP (1.5 mmolar of each), tris(hydroxymethyl)aminomethane buffer (10 mmolar, pH 8), ethylenediaminetetraacetic acid (0.1 mmolar), potassium chloride (50 mmolar), DNA polymerase (160 units/ml) and Kodak Ultrapure Human DNA (0.22 μg/μl), glycerol (7.5%). […]\nAll reagents, except the DNA polymerase, were mixed with the buffer solution noted above. […] The fluorescence of the contents of that tube was then measured following dilution (100 μl of reaction mixture with 3900 μl of dye solution at a concentration of […], giving a final fluid volume of 4 ml in the fluorimeter cuvette) on a commercially available Perkin-Elmer LS-5B spectrofluorimeter (excitation at 491 nm, emission at 509 nm).\nThe results of these measurements are shown in the FIGURE which is a plot of fluorescence intensity vs. the number of PCR cycles. […]"}, "[2]": {"target": "double-stranded nucleic acids", "test": "Binding constant (Kb) of fluorescent dye with double-stranded nucleic acids", "conditions": "Kp from Molecular Probes catalog divided by 55", "text": "The fluorescent dyes useful herein are generally defined as unsymmetrical cyanine dyes having a binding constant (Kb) within the range of from about 1×104 to about 5×105 (molar^-1). As used to define Kb, \"about\" refers to a variance of 10%. The dyes are also water-soluble or water-dispersible so they can bind to the nucleic acids in the aqueous reaction mixture. Depending upon the anions used, the dyes may be dissolved in a water-miscible solvent.\nParticularly useful fluorescent dyes are commercially available from Molecular Probes, Inc. having the trade names and Kp values listed in Table I below. However, this invention is not to be construed as limited to the particular Molecular Probes, Inc. dyes listed therein since these are but preferred dyes. The cations of these preferred dyes are also identified below by chemical structure. The compounds can include any suitable divalent anion, or two monovalent anions. Iodide is preferred. [drawing 3]\n*The Kb values in the table were calculated by dividing the partitio\ncoefficient (Kp) reported in the Molecular Probes, Inc. catalog, page 224\nby 55, the molarity of water."}},
  "data": [
    {"smiles": "C[n+]1c(C=C2C=CN(CCC[N+](C)(C)C)c3ccccc32)oc2ccccc21", "note": "[Compound E]", "values": [
      {"measurement": "fluorescence after PCR", "setting": "[1]; after 45 PCR cycles, excitation 491 nm, emission 509 nm", "result": "about 20 fluorescent units"},
      {"measurement": "effect of dye on PCR", "setting": "[1]; dye present throughout entire amplification, 1 μmolar", "result": "did not adversely affect PCR"},
      {"measurement": "Kd", "setting": "[2]", "result": 6.67, "unit": "µM"}
    ]}
  ]
}
